Literature values as cited in patent US20080254098A1, “Neural tube birth defect reduction with folic acid delivery in catamenial hygiene products” (priority 2007, published 2008).

Legend:
[1] = Norway; daily folic acid supplements of 0.4 mg or more
[2] = red blood cell folate
[3] = basis of the recommended daily intake of 2 mcg to 3 mcg

| biological half-life [2] | absorption rate [3] | Compound | reduction of risk of cleft lip, with or without cleft palate [1] | births with neural tube defects (Nova Scotia, Canada, 1998-2000, after fortification began in 1998, 2.58 per 1000 in 1991-1997 before it) | percent of women with one previous neural tube defect pregnancy who had a lower risk of another child with this birth defect (Wald 1991, prescription doses of folic acid versus placebo) | reduction of incidence of neural tube defects by adequate supplementing with folic acid (current estimate, depends on local dietary habits and ethnicity) |
| --- | --- | --- | --- | --- | --- | --- |
| approximately 8 weeks | – | Nc1nc2ncc(CNc3ccc(C(=O)N[C@@H](CCC(=O)O)C(=O)O)cc3)nc2c(=O)[nH]1 [folic acid] | 40% | 1.17 per 1,000 | 72% | 50%-70% |
| – | 50% | cyanocobalamin [vitamin B12] | – | – | – | – |
